In general, IC50 refers to the concentration needed to halve the response being measured.

The results in this text go back to patent US9902702B2, “Spirocycloheptanes as inhibitors of rock” (BRISTOL-MYERS SQUIBB COMPANY, priority 2014, dated 2018).

The assay concerns the target ROCK2 (Homo sapiens, UniProt O75116). Put plainly: ROCK assay: phosphorylation of FITC peptide substrate, LABCHIP 3000 mobility shift. The format is biochemical. The conditions noted are these: 5 μM ATP, 1.5 μM peptide substrate; read-out: ROCK2 Activity (ROCK IC50 range). The method in brief:
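IC50 values come from curve-fitting percent kinase inhibition across a compound dilution series. The reaction is started with Rho kinase variant in HEPES pH 7.5 buffer with MgCl2, Brij-35 and DTT, with 5 μM ATP, 1.5 μM FITC-labelled peptide and under 2% DMSO. After EDTA quench, product and substrate are separated by microfluidic mobility shift.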

Chain of ROCK2 (O75116 whole entry, species assumed): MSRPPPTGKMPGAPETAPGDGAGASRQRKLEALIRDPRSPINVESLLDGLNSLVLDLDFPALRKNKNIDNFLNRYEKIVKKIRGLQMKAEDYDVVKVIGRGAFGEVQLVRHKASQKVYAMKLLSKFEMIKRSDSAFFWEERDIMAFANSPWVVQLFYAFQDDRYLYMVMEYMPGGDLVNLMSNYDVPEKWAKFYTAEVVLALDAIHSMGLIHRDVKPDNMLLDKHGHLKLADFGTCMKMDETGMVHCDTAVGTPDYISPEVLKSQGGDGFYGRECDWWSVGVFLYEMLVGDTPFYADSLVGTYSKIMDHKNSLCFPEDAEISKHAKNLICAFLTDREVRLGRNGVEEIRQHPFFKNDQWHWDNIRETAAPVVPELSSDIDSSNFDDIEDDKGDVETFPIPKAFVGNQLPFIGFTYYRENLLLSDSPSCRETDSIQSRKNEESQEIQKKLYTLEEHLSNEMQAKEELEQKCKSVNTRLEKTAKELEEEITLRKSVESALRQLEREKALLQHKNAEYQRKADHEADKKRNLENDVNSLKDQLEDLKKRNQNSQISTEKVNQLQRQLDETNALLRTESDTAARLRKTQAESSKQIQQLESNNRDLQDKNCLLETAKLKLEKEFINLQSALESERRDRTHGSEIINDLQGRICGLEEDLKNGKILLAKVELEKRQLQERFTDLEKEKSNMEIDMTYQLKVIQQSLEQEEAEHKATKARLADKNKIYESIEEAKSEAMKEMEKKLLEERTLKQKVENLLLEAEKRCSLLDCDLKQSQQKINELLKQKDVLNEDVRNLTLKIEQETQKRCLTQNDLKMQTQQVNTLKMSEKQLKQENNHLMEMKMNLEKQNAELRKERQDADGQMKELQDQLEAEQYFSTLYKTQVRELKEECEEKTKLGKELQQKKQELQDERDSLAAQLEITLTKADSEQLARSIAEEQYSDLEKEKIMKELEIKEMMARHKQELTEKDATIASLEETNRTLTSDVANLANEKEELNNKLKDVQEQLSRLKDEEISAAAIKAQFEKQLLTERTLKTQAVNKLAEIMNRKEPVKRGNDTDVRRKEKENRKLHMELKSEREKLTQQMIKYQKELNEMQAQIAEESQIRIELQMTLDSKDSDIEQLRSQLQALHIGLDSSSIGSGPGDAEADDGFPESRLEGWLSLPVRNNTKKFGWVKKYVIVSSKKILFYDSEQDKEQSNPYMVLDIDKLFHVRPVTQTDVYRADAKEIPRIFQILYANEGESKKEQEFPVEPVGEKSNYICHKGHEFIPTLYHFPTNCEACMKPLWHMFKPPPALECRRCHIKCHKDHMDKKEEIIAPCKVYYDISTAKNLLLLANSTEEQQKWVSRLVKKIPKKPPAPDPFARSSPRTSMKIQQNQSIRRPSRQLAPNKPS

Consider `CC(C)n1cc(-c2ccc3c(c2)CCN3C(=O)NC2CC3(C2)CC(c2n[nH]c(=O)c4ccccc24)C3)c(C(F)(F)F)n1` [Example 244, 5-(1-isopropyl-3-(trifluoromethyl)-1H-pyrazol-4-yl)-N-((aR)-6-(4-oxo-3,4-dihydrophthalazin-1-yl)spiro[3.3]heptan-2-yl)indoline-1-carboxamide], for which the IC50 lay within 5.1 to 15 nM.

With `Cc1nc(N2CCCCC2)sc1C(=O)N[C@H]1CC2(C1)C[C@H](c1n[nH]c(=O)c3ccccc31)C2` (stereo partly drawn) [Example 33, 4-Methyl-N-((aR)-6-(4-oxo-3,4-dihydrophthalazin-1-yl)spiro[3.3]heptan-2-yl)-2-(piperidin-1-yl)thiazole-5-carboxamide], the half-maximal inhibitory concentration (IC50) fell in the range of 0.2 to 2 nM.

Regarding `COc1ccc(-c2ccc3c(C(=O)NC4CC5(C4)CC(c4n[nH]c(=O)c6ccccc46)C5)nn(CC(C)(C)O)c3c2)cc1` (stereo not shown) [Example 153, 1-(2-hydroxy-2-methylpropyl)-6-(4-methoxyphenyl)-N-((αR)-6-(4-oxo-3,4-dihydrophthalazin-1-yl)spiro[3.3]heptan-2-yl)-1H-indazole-3-carboxamide], the IC50 fell in the range of 2.01 to 5 nM.

Turning to `O=C(NC1CC2(C1)CC(c1n[nH]c(=O)c3ccccc13)C2)c1cnn2cc(-c3cnn(C4CC4)c3)ccc12` [Example 217, 6-(1-cyclopropyl-1H-pyrazol-4-yl)-N-((aR)-6-(4-oxo-3,4-dihydrophthalazin-1-yl)spiro[3.3]heptan-2-yl)pyrazolo[1,5-a]pyridine-3-carboxamide], the half-inhibitory concentration (IC50) was in the range of 0.2 to 2 nM. As for `[H][C@]1(c2n[nH]c(=O)c3ccccc32)C[C@]2(C[C@@H](NC(=O)c3cccc(OCCN4CCOCC4)c3)C2)C1` (stereo partly drawn) [Example 338, 3-(2-morpholino-ethoxy)-N-((aR)-6-(4-oxo-3,4-dihydrophthalazin-1-yl)spiro[3.3]heptan-2-yl)benzamide], the IC50 was 15.1 to 100 nM. Take `CC(C)(O)Cn1nc(C(=O)NC2CC3(C2)CC(c2n[nH]c(=O)c4ccccc24)C3)c2ccc(-c3c(F)cccc3F)cc21` (stereo not shown) [Example 159, 6-(2,6-difluorophenyl)-1-(2-hydroxy-2-methylpropyl)-N-((αR)-6-(4-oxo-3,4-dihydrophthalazin-1-yl)spiro[3.3]heptan-2-yl)-1H-indazole-3-carboxamide]: the half-inhibitory concentration (IC50) is 2.01 to 5 nM. As to `CC(C)(C)n1cc(-c2ccc3c(C(=O)NC4CC5(C4)CC(c4n[nH]c(=O)c6ccccc46)C5)cnn3c2)cn1` [Example 225, 6-(1-(tert-butyl)-1H-pyrazol-4-yl)-N-((aR)-6-(4-oxo-3,4-dihydrophthalazin-1-yl)spiro[3.3]heptan-2-yl)pyrazolo[1,5-a]pyridine-3-carboxamide], the IC50 was in the range of 0.2 to 2 nM. On to `O=C(NC1CC2(C1)CC(c1n[nH]c(=O)c3ccccc13)C2)c1cnn(Cc2ccccc2)c1` [Example 109, 1-benzyl-N-((aR)-6-(4-oxo-3,4-dihydrophthalazin-1-yl)spiro[3.3]heptan-2-yl)-1H-pyrazole-4-carboxamide], for which the IC50 was in the range of 2.01 to 5 nM. Turning to `[H][C@]1(c2n[nH]c(=O)c3ccccc32)C[C@]2(C[C@@H](NC(=O)c3cnc4ccccn34)C2)C1` (stereo partly drawn) [Example 318, N-((aR)-6-(4-oxo-3,4-dihydrophthalazin-1-yl)spiro[3.3]heptan-2-yl)imidazo[1,2-a]pyridine-3-carboxamide], the half-inhibitory concentration (IC50) fell in the range of 5.1 to 15 nM. The result for `O=C(NC1CC2(C1)CC(c1n[nH]c(=O)c3ccccc13)C2)c1cnn2cc(-c3cnn(C4CCOCC4)c3)ccc12` [Example 222, N-((aR)-6-(4-oxo-3,4-dihydrophthalazin-1-yl)spiro[3.3]heptan-2-yl)-6-(1-(tetrahydro-2H-pyran-4-yl)-1H-pyrazol-4-yl)pyrazolo[1,5-a]pyridine-3-carboxamide] reads 0.2 to 2 nM; that for `Cc1c(C(=O)NC2CC3(C2)CC(c2n[nH]c(=O)c4ccccc24)C3)cnn1-c1ccccc1` [Example 20, 5-methyl-N-[(aR)-6-(4-oxo-3,4-dihydrophthalazin-1-yl)spiro[3.3]heptan-2-yl]-1-phenyl-1H-pyrazole-4-carboxamide], 0.2 to 2 nM; that for `O=C(NC1CC2(C1)CC(c1n[nH]c(=O)c3ccccc13)C2)N1Cc2ccc(-c3cnn(C4CC4)c3)cc2C1` [Example 247, 5-(1-cyclopropyl-1H-pyrazol-4-yl)-N-((aR)-6-(4-oxo-3,4-dihydrophthalazin-1-yl)spiro[3.3]heptan-2-yl)isoindoline-2-carboxamide], 2.01 to 5 nM. `[H][C@]1(c2n[nH]c(=O)c3ccccc32)C[C@]2(C[C@@H](NC(=O)c3cnc4cc(-c5ccccc5)ccn34)C2)C1` (stereo partly drawn) [Example 383, N-((aR)-6-(4-oxo-3,4-dihydrophthalazin-1-yl)spiro[3.3]heptan-2-yl)-7-phenylimidazo[1,2-a]pyridine-3-carboxamide]: the half-maximal inhibitory concentration (IC50) lay in the range of 0.2 to 2 nM.

As for `[H][C@]1(c2n[nH]c(=O)c3ccccc32)C[C@@]2(C[C@H](NC(=O)c3cnc4cc(N5CC[C@@H](F)C5)ccn34)C2)C1` (stereo partly drawn) [Example 393, 7-((R)-3-fluoropyrrolidin-1-yl)-N-((aR)-6-(4-oxo-3,4-dihydrophthalazin-1-yl)spiro[3.3]heptan-2-yl)imidazo[1,2-a]pyridine-3-carboxamide], the IC50 lay in the range of 0.2 to 2 nM. Regarding `O=C(NC1CC2(C1)CC(c1n[nH]c(=O)c3ccccc13)C2)N1CCc2cc(-c3cnn(C4CC4)c3)ccc21` [Example 236, 5-(1-cyclopropyl-1H-pyrazol-4-yl)-N-((aR)-6-(4-oxo-3,4-dihydrophthalazin-1-yl)spiro[3.3]heptan-2-yl)indoline-1-carboxamide], the half-inhibitory concentration (IC50) fell in the range of 0.2 to 2 nM.

Take `N#Cc1ccc2c(C(=O)NC3CC4(C3)CC(c3n[nH]c(=O)c5ccccc35)C4)cnn2c1` (stereo not drawn) [Example 168, 6-cyano-N-((αR)-6-(4-oxo-3,4-dihydrophthalazin-1-yl)spiro[3.3]heptan-2-yl)pyrazolo[1,5-α]pyridine-3-carboxamide]: the IC50 lay in the range of 15.1 to 100 nM. Consider `[H][C@]1(c2n[nH]c(=O)c3ccccc32)C[C@]2(C[C@@H](NC(=O)c3ccc(-c4cn[nH]c4)cc3)C2)C1` (stereo partly drawn) [Example 337, N-((aR)-6-(4-oxo-3,4-dihydrophthalazin-1-yl)spiro[3.3]heptan-2-yl)-4-(1H-pyrazol-4-yl)benzamide], for which the IC50 is 5.1 to 15 nM.

On to `[H][C@]1(c2n[nH]c(=O)c3ccccc32)C[C@]2(C[C@@H](NC(=O)c3cnc4cc(OC(CF)CF)ccn34)C2)C1` (stereo partly drawn) [Example 433, 7-((1,3-difluoropropan-2-yl)oxy)-N-((aR)-6-(4-oxo-3,4-dihydrophthalazin-1-yl)spiro[3.3]heptan-2-yl)imidazo[1,2-a]pyridine-3-carboxamide], for which the 50% inhibitory concentration (IC50) was 2.01 to 5 nM. As to `O=C(N[C@H]1CC2(C1)C[C@H](c1n[nH]c(=O)c3ccccc31)C2)c1cnn2cc(N3CCCC3=O)ccc12` (stereo partly drawn) [Example 165, N-((aR)-6-(4-oxo-3,4-dihydrophthalazin-1-yl)spiro[3.3]heptan-2-yl)-6-(2-oxopyrrolidin-1-yl)pyrazolo[1,5-a]pyridine-3-carboxamide], the half-inhibitory concentration (IC50) was 5.1 to 15 nM. Consider `CC(C)(O)Cn1cc(C(=O)NC2CC3(C2)CC(c2n[nH]c(=O)c4ccccc24)C3)c2ccccc21` [Example 72, 1-(2-hydroxy-2-methylpropyl)-N-((aR)-6-(4-oxo-3,4-dihydrophthalazin-1-yl)spiro[3.3]heptan-2-yl)-1H-indole-3-carboxamide], for which the IC50 fell in the range of 0.2 to 2 nM.

Regarding `Cc1nn(C)c(C)c1-c1ccc2c(c1)CN(C(=O)NC1CC3(C1)CC(c1n[nH]c(=O)c4ccccc14)C3)C2` [Example 246, N-((aR)-6-(4-oxo-3,4-dihydrophthalazin-1-yl)spiro[3.3]heptan-2-yl)-5-(1,3,5-trimethyl-1H-pyrazol-4-yl)isoindoline-2-carboxamide], the IC50 was in the range of 2.01 to 5 nM.

For the molecule `Cc1sc(N2CCC(F)C2)nc1C(=O)NC1CC2(C1)CC(c1n[nH]c(=O)c3ccccc13)C2` [Example 58, 2-((S)-3-fluoropyrrolidin-1-yl)-5-methyl-N-((aR)-6-(4-oxo-3,4-dihydrophthalazin-1-yl)spiro[3.3]heptan-2-yl)thiazole-4-carboxamide], the concentration for half-maximal inhibition (IC50) is 2.01 to 5 nM. For `O=C(NC1CC2(C1)CC(c1n[nH]c(=O)c3ccccc13)C2)c1cn2c(n1)sc1ccccc12` [Example 94, N-((aR)-6-(4-oxo-3,4-dihydrophthalazin-1-yl)spiro[3.3]heptan-2-yl)benzo[d]imidazo[2,1-b]thiazole-2-carboxamide], the concentration for half-maximal inhibition (IC50) was in the range of 5.1 to 15 nM. Turning to `Cc1c(-c2ccc3c(C(=O)N[C@H]4CC5(C4)C[C@H](c4n[nH]c(=O)c6ccccc64)C5)cnn3c2)cnn1C` (stereo partly drawn) [Example 216, 6-(1,5-dimethyl-1H-pyrazol-4-yl)-N-((aR)-6-(4-oxo-3,4-dihydrophthalazin-1-yl)spiro[3.3]heptan-2-yl)pyrazolo[1,5-a]pyridine-3-carboxamide], the IC50 fell in the range of 0.2 to 2 nM. As for `[H][C@]1(c2n[nH]c(=O)c3ccccc32)C[C@]2(C[C@@H](NC(=O)c3cc4ccc(F)c(C)c4[nH]3)C2)C1` (stereo partly drawn) [Example 329, 6-fluoro-7-methyl-N-((aR)-6-(4-oxo-3,4-dihydrophthalazin-1-yl)spiro[3.3]heptan-2-yl)-1H-indole-2-carboxamide], the concentration for half-maximal inhibition (IC50) was 0.2 to 2 nM. In the case of `CC(C)(C)OC(=O)N1CCc2c(C(=O)N[C@H]3CC4(C3)C[C@H](c3n[nH]c(=O)c5ccccc53)C4)csc2C1` (stereo partly drawn) [Example 272, tert-butyl 3-(((aR)-6-(4-oxo-3,4-dihydrophthalazin-1-yl)spiro[3.3]heptan-2-yl)carbamoyl)-4,5-dihydrothieno[2,3-c]pyridine-6(7H)-carboxylate], the IC50 was in the range of 5.1 to 15 nM.

For `[H][C@]1(c2n[nH]c(=O)c3ccccc32)C[C@]2(C[C@@H](NC(=O)c3ccc(C)nc3O)C2)C1` (stereo partly drawn) [Example 343, 2-hydroxy-6-methyl-N-((aR)-6-(4-oxo-3,4-dihydrophthalazin-1-yl)spiro[3.3]heptan-2-yl)nicotinamide], the half-maximal inhibitory concentration (IC50) lay within 15.1 to 100 nM. As for `O=C(NC1CC2(C1)CC(c1n[nH]c(=O)c3ccccc13)C2)c1cnn(C2CC2)c1` [Example 27, 1-cyclopropyl-N-[(aR)-6-(4-oxo-3,4-dihydrophthalazin-1-yl)spiro[3.3]heptan-2-yl]-1H-pyrazole-4-carboxamide], the half-inhibitory concentration (IC50) lay within 5.1 to 15 nM.
